Measured values reported in patent publication US8247211B2, “Glycopeptide antibiotics” (American Cyanamid Company, priority 2001, dated 2012).
≈ marks a conversion by molar mass, not a printed value.

Experiments:
Experiment in all cases: In vitro antibacterial evaluation: minimum inhibitory concentration (MIC), broth dilution method
Format in all cases: cell-based
[1] = tested on: Enterococcus sp.; details: for MIC Enterococcus faecalis (ATCC 29212): strain ATCC 29212; for MIC Enterococcus faecium (GC 2243): strain GC 2243; for MIC Enterococcus faecalis (GC 4552): strain GC 4552; for MIC Enterococcus faecalis (GC 4553): strain GC 4553; for MIC Enterococcus faecalis (GC 4554): strain GC 4554; for MIC Enterococcus faecium (GC 4556): strain GC 4556; for MIC Enterococcus faecium (GC 4557): strain GC 4557; for MIC Enterococcus avium (GC 4558): strain GC 4558; for MIC Enterococcus faecalis (GC 6189): strain GC 6189
Description: (§1) The minimum inhibitory concentration (MIC), the lowest concentration of the antibiotic which inhibits growth of the test organism, is determined by the broth dilution method using Muller-Hinton II […] (Baltimore Biological Laboratories) following the recommendations of the National Committee for Clinical Laboratory Standards [Methods for dilution antimicrobial susceptibility tests for bacteria that grow aerobically, approved standard M7-A2, National Committee for Clinical Laboratory Standards, Villanova, Pa].
(§2) An inoculum level of 5×10^5 CFU/mL, and a range of antibiotic concentrations (64-0.06 μg/mL) is used. […] The test organisms include a spectrum of Gram-positive bacteria comprised of Staphylococcus sp., Streptococcus sp. and Enterococcus sp. These organisms include recent clinical isolates that are resistant to methicillin, penicillin and/or vancomycin.

[2] = tested on: Staphylococcus sp.; details: broth dilution, 18 hours at 35° C.; for MIC Staphylococcus aureus-SMITH (GC 4543): strain SMITH GC 4543
Description: as §1, §2

[3] = tested on: Escherichia coli; details: for MIC Escherichia coli (GC 4560): strain GC 4560
Description: as §1, §2

[4] = tested on: Streptococcus sp.
Description: as §1, §2

[5] = Enterococcus faecalis (GC 2242), broth dilution, 18 hours at 35° C.
[6] = Enterococcus faecalis (GC 2691), broth dilution, 18 hours at 35° C.
[7] = Enterococcus faecalis (GC 3059), broth dilution, 18 hours at 35° C.
[8] = Streptococcus agalactiae (GC 4564), broth dilution, 18 hours at 35° C.
[9] = Streptococcus pneumoniae (ATCC 6301), broth dilution, 18 hours at 35° C.
[10] = Streptococcus pneumoniae (GC 1894), broth dilution, 18 hours at 35° C.
[11] = Streptococcus pneumoniae (GC 4565), broth dilution, 18 hours at 35° C.
[12] = Streptococcus pyogenes (GC 4563), broth dilution, 18 hours at 35° C.

With `CC(C)=CCCC(C)=CCN=C1NCC(C(O)C2NC(=O)C(C(O)C3CNC(=N)N3)NC(=O)C(Cc3ccc(OC4OC(CO)C(OC5OC6COC7(OC6C(O)C5O)C5CC6CC(C5)CC7C6)C(O)C4O)cc3)NC(=O)C(C(C)c3ccccc3)NC(=O)CNC(=O)C(CO)NC2=O)N1C1OC(CO)C(O)C(O)C1O` (stereo not drawn) [Example 82, Cyclo[glycyl-β-methylphenylalanyl-O-[4-O-[4,6-O-(2-adamantylidene)hexopyranosyl]hexopyranosyl]tyrosyl-3-(2-iminoimidazolidin-4-yl)seryl-3-[1-[(3,7-dimethylocta-2,6-dien-1-yl)-imino]-3-hexopyranosylimidazolidin-4-yl]serylseryl]] the “MIC Enterococcus faecalis (GC 2242)” value [1, 5] was 16 µg/mL (≈ 10.2 µM), the “MIC Enterococcus faecalis (GC 2691)” value [1, 6] was 16 µg/mL (≈ 10.2 µM) and the “MIC Enterococcus faecalis (GC 3059)” value [1, 7] was 16 µg/mL (≈ 10.2 µM). For the same molecule, the “MIC Enterococcus faecalis (ATCC 29212)” value [1] was 16 µg/mL (≈ 10.2 µM), the “MIC Enterococcus faecalis (GC 2242)” value ([1]; strain GC 2242) was 16 µg/mL (≈ 10.2 µM) and the “MIC Enterococcus faecium (GC 2243)” value [1] was 8 µg/mL (≈ 5.12 µM). The “MIC Enterococcus faecalis (GC 2691)” value ([1]; strain GC 2691) was 16 µg/mL (≈ 10.2 µM), the “MIC Enterococcus faecalis (GC 3059)” value ([1]; strain GC 3059) was 16 µg/mL (≈ 10.2 µM) and the “MIC Enterococcus faecalis (GC 4552)” value [1] was 16 µg/mL (≈ 10.2 µM). For the same molecule, the “MIC Enterococcus faecalis (GC 4553)” value [1] was 8 µg/mL (≈ 5.12 µM), the “MIC Enterococcus faecalis (GC 4554)” value [1] was 32 µg/mL (≈ 20.5 µM) and the “MIC Enterococcus faecium (GC 4556)” value [1] was 16 µg/mL (≈ 10.2 µM). The “MIC Enterococcus faecium (GC 4557)” value [1] was 2 µg/mL (≈ 1.28 µM), the “MIC Enterococcus avium (GC 4558)” value [1] was 4 µg/mL (≈ 2.56 µM) and the “MIC Enterococcus faecalis (GC 6189)” value [1] was 16 µg/mL (≈ 10.2 µM). The “MIC Coagulase Negative Staphylococcus (GC 4547)” value [2] was 4 µg/mL (≈ 2.56 µM), the “MIC Coagulase Negative Staphylococcus (GC 4548)” value [2] was 4 µg/mL (≈ 2.56 µM) and the “MIC Coagulase Negative Staphylococcus (GC 4549)” value [2] was 4 µg/mL (≈ 2.56 µM). For the same molecule, the “MIC Coagulase Negative Staphylococcus (GC 4551)” value [2] was 8 µg/mL (≈ 5.12 µM), the “MIC Staphylococcus aureus (ATCC 29213)” value [2] was 8 µg/mL (≈ 5.12 µM) and the “MIC Staphylococcus aureus (GC 1131)” value [2] was 16 µg/mL (≈ 10.2 µM). The “MIC Staphylococcus aureus (GC 3051)” value [2] was 8 µg/mL (≈ 5.12 µM), the “MIC Staphylococcus aureus (GC 3053)” value [2] was 16 µg/mL (≈ 10.2 µM) and the “MIC Staphylococcus aureus (GC 4541)” value [2] was 8 µg/mL (≈ 5.12 µM). The “MIC Staphylococcus aureus (GC 4542)” value [2] was 16 µg/mL (≈ 10.2 µM), the “MIC Staphylococcus aureus (GC 4544)” value [2] was 16 µg/mL (≈ 10.2 µM) and the “MIC Staphylococcus aureus (GC 4545)” value [2] was 8 µg/mL (≈ 5.12 µM). The “MIC Staphylococcus aureus SMITH (GC 4543)” value [2] was 8 µg/mL (≈ 5.12 µM), the “MIC Staphylococcus haemolyticus (GC 4546)” value [2] was 4 µg/mL (≈ 2.56 µM) and the “MIC Staphylococcus aureus-SMITH (GC 4543)” value [2] was 8 µg/mL (≈ 5.12 µM). For the same molecule, the “MIC Escherichia coli (GC 4560)” value [3] was 4 µg/mL (≈ 2.56 µM), the “MIC Streptococcus agalactiae (GC 4564)” value [4, 8] was 0.5 µg/mL (≈ 0.32 µM) and the “MIC Streptococcus pneumoniae (ATCC 6301)” value [4, 9] was 2 µg/mL (≈ 1.28 µM). The “MIC Streptococcus pneumoniae (GC 1894)” value [4, 10] was 0.25 µg/mL (≈ 0.16 µM), the “MIC Streptococcus pneumoniae (GC 4565)” value [4, 11] was 2 µg/mL (≈ 1.28 µM) and the “MIC Streptococcus pyogenes (GC 4563)” value [4, 12] was 1 µg/mL (≈ 0.64 µM). The “MIC Streptococcus pneumoniae (ATCC 6301)” value ([4]; strain ATCC 6301) was 2 µg/mL (≈ 1.28 µM), the “MIC Streptococcus pneumoniae (GC 1894)” value ([4]; strain GC 1894) was 0.25 µg/mL (≈ 0.16 µM) and the “MIC Streptococcus pyogenes (GC 4563)” value ([4]; strain GC 4563) was 1 µg/mL (≈ 0.64 µM). For the same molecule, the “MIC Streptococcus agalactiae (GC 4564)” value ([4]; strain GC 4564) was 0.5 µg/mL (≈ 0.32 µM) and the “MIC Streptococcus pneumoniae (GC 4565)” value ([4]; strain GC 4565) was 2 µg/mL (≈ 1.28 µM).
In the case of `CCCCCCCN1CC(C(O)C2NC(=O)C(C(O)C3CNC(=N)N3)NC(=O)C(Cc3ccc(OC4OC(CO)C(OC5OC6COC7(OC6C(O)C5O)C5CC6CC(C5)CC7C6)C(O)C4O)cc3)NC(=O)C(C(C)c3ccccc3)NC(=O)CNC(=O)C(CO)NC2=O)N(C2OC(CO)C(O)C(O)C2O)C1=N` (stereo not drawn) [Example 83, Cyclo[glycyl-β-methylphenylalanyl-O-[4-O-[4,6-O-(2-adamantylidene)hexopyranosyl]hexopyranosyl]tyrosyl-3-(2-iminoimidazolidin-4-yl)seryl-3-[1-heptyl-3-hexopyranosyl-2-iminoimidazolidin-4-yl]serylseryl]], the “MIC Enterococcus faecalis (GC 2242)” value [1, 5] is reported as 4 µg/mL (≈ 2.62 µM), the “MIC Enterococcus faecalis (GC 2691)” value [1, 6] is reported as 4 µg/mL (≈ 2.62 µM) and the “MIC Enterococcus faecalis (GC 3059)” value [1, 7] is reported as 4 µg/mL (≈ 2.62 µM). For the same molecule, the “MIC Enterococcus faecalis (ATCC 29212)” value [1] was 4 µg/mL (≈ 2.62 µM), the “MIC Enterococcus faecalis (GC 2242)” value ([1]; strain GC 2242) was 4 µg/mL (≈ 2.62 µM) and the “MIC Enterococcus faecium (GC 2243)” value [1] was 2 µg/mL (≈ 1.31 µM). For the same molecule, the “MIC Enterococcus faecalis (GC 2691)” value ([1]; strain GC 2691) was 4 µg/mL (≈ 2.62 µM), the “MIC Enterococcus faecalis (GC 3059)” value ([1]; strain GC 3059) was 4 µg/mL (≈ 2.62 µM) and the “MIC Enterococcus faecalis (GC 4552)” value [1] was 4 µg/mL (≈ 2.62 µM). The “MIC Enterococcus faecalis (GC 4553)” value [1] was 2 µg/mL (≈ 1.31 µM), the “MIC Enterococcus faecalis (GC 4554)” value [1] was 4 µg/mL (≈ 2.62 µM) and the “MIC Enterococcus faecium (GC 4556)” value [1] was 4 µg/mL (≈ 2.62 µM). The “MIC Enterococcus faecium (GC 4557)” value [1] was 1 µg/mL (≈ 0.655 µM), the “MIC Enterococcus avium (GC 4558)” value [1] was 2 µg/mL (≈ 1.31 µM) and the “MIC Enterococcus faecalis (GC 6189)” value [1] was 4 µg/mL (≈ 2.62 µM). The “MIC Staphylococcus aureus (ATCC 29213)” value [2] was 2 µg/mL (≈ 1.31 µM), the “MIC Staphylococcus aureus (GC 1131)” value [2] was 4 µg/mL (≈ 2.62 µM) and the “MIC Staphylococcus aureus (GC 3051)” value [2] was 4 µg/mL (≈ 2.62 µM). For the same molecule, the “MIC Staphylococcus aureus (GC 3053)” value [2] was 4 µg/mL (≈ 2.62 µM), the “MIC Staphylococcus aureus (GC 4541)” value [2] was 2 µg/mL (≈ 1.31 µM) and the “MIC Staphylococcus aureus (GC 4542)” value [2] was 4 µg/mL (≈ 2.62 µM). For the same molecule, the “MIC Staphylococcus aureus (GC 4544)” value [2] was 4 µg/mL (≈ 2.62 µM), the “MIC Staphylococcus aureus (GC 4545)” value [2] was 2 µg/mL (≈ 1.31 µM) and the “MIC Staphylococcus aureus-SMITH (GC 4543)” value [2] was 2 µg/mL (≈ 1.31 µM). For the same molecule, the “MIC Escherichia coli (ATCC 25922)” value ([3]; strain ATCC 25922) was 64 µg/mL (≈ 41.9 µM), the “MIC Escherichia coli (GC 4559)” value ([3]; strain GC 4559) was 32 µg/mL (≈ 21 µM) and the “MIC Escherichia coli (GC 4560)” value [3] was 2 µg/mL (≈ 1.31 µM). The “MIC Streptococcus agalactiae (GC 4564)” value [4, 8] was 0.25 µg/mL (≈ 0.164 µM), the “MIC Streptococcus pneumoniae (ATCC 6301)” value [4, 9] was 0.5 µg/mL (≈ 0.328 µM) and the “MIC Streptococcus pneumoniae (GC 1894)” value [4, 10] was less than 0.12 µg/mL. The “MIC Streptococcus pneumoniae (GC 4565)” value [4, 11] was 0.25 µg/mL (≈ 0.164 µM), the “MIC Streptococcus pyogenes (GC 4563)” value [4, 12] was 0.25 µg/mL (≈ 0.164 µM) and the “MIC Streptococcus pneumoniae (ATCC 6301)” value ([4]; strain ATCC 6301) was 0.5 µg/mL (≈ 0.328 µM). The “MIC Streptococcus pneumoniae (GC 1894)” value ([4]; strain GC 1894) was less than 0.12 µg/mL, the “MIC Streptococcus pyogenes (GC 4563)” value ([4]; strain GC 4563) was 0.25 µg/mL (≈ 0.164 µM) and the “MIC Streptococcus agalactiae (GC 4564)” value ([4]; strain GC 4564) was 0.25 µg/mL (≈ 0.164 µM). The “MIC Streptococcus pneumoniae (GC 4565)” value ([4]; strain GC 4565) was 0.25 µg/mL (≈ 0.164 µM).
